# Source: US7169786B2, “Isoxazoline derivatives as anti-depressants” (priority 2001, dated 2007)
# Legend:
# hα2C receptor = target: T1, hα2C receptor (Homo sapiens, UniProt P18825); assay: Radioligand binding experiment for hα2C receptor ([3H]-raulwolscine); conditions: membranes of CHO cells expressing human α2C receptor, [3H]raulwolscine 1 nM; for IC50: read-out: hα2C pIC50 (converted)
# T1 construct: expressed in transfected cells
# T1 sequence (P18825 1-462): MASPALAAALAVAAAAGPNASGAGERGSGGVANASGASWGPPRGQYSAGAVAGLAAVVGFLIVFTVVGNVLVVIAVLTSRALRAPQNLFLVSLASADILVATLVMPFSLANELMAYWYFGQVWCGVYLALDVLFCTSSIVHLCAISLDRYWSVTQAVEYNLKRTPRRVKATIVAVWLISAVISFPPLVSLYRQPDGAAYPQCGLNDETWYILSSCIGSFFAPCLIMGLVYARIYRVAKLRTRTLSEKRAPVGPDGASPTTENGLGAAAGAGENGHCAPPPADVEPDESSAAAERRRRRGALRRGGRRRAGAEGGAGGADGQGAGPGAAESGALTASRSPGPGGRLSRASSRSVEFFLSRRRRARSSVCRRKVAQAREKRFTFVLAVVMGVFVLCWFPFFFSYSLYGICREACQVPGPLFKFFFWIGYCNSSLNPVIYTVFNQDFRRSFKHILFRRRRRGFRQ
# Summary of the method: (§1)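 Competition binding with [3H]-rauwolscine on membranes from CHO cells stably expressing human α2A, α2B or α2C receptors (sodium butyrate-induced), in 25 mM glycylglycine pH 8.0; filtration and scintillation counting.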
# hα2A receptor = target: T2, hα2A receptor (Homo sapiens, UniProt P08913); assay: Radioligand binding experiment for hα2A receptor ([3H]-raulwolscine); conditions: membranes of CHO cells expressing human α2A receptor, [3H]raulwolscine 1 nM; for IC50: read-out: hα2A pIC50 (converted)
# T2 construct: expressed in transfected cells
# T2 sequence (P08913 1-465): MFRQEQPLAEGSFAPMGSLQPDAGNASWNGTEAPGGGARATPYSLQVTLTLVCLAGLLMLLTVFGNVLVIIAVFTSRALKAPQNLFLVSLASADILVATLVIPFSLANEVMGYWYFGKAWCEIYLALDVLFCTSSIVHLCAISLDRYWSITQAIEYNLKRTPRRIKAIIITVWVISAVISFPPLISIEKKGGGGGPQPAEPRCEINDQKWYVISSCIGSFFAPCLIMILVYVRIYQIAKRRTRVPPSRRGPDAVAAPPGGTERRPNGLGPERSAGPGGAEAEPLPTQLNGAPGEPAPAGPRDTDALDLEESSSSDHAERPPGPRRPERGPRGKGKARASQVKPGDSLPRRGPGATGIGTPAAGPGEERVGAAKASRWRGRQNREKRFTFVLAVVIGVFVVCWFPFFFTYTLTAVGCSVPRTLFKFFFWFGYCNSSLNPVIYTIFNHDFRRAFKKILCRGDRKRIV
# Description: The interaction of the compounds of Formula (I) with hα2-receptors and h5-HT-transporters was assessed in in vitro radioligand binding experiments. In general, a low concentration of a radioligand with a high binding affinity for a particular receptor or transporter is incubated with a sample of a tissue preparation enriched in a particular receptor or transporter or with a preparation of cells expressing cloned human receptors in a buffered medium. During the incubation, the radioligand binds to the receptor or transporter. When equilibrium of binding is reached, the receptor bound radioactivity is separated from the non-bound radioactivity, and the receptor- or transporter-bound activity is counted. The interaction of the test compounds with the receptor is assessed in competition binding experiments. Various concentrations of the test compound are added to the incubation mixture containing the receptor- or transporter preparation and the radioligand. The test compound in proportion to its binding affinity and its concentration inhibits binding of the radioligand. The radioligand used for hα2A, hα2B and hα2C receptor binding was [^3H]-raulwolscine and for the h5-HT transporter was [^3H]paroxetine.
# CHO cells, stabile transfected with human adrenergic-α2A-, -α2B or α2C receptor cDNA, were cultured in Dulbecco's Modified Eagle's Medium (DMEM)/Nutrient mixture Ham's F12 (ratio 1:1)(Gibco, Gent-Belgium) supplemented with 10% heat inactivated fetal calf serum (Life Technologies, Merelbeke-Belgium) and antibiotics (100 IU/ml penicillin G, 100 μg/ml streptomycin sulphate, 110 μg/ml pyruvic acid and 100 μg/ml L-glutamine). One day before collection, cells were induced with 5 mM sodiumbutyrate. Upon 80–90% of confluence, cells were scraped in phosphate buffered saline without Ca^2+ and Mg^2+ and collected by centrifugation at 1500×g for 10 min. The cells were homogenised in Tris-HCl 50 mM using an Ultraturrax homogenizer and centrifuged for 10 min at 23,500×g. The pellet was washed once by resuspension and rehomogenization and the final pellet was resuspended in Tris-HCl, divided in 1 ml aliquots and stored at −70° C.
# Membranes were thawed and re-homogenized in incubation buffer (glycylglycine 25 mM, pH 8.0). […] Filters were rinsed extensively with ice-cold rinsing buffer (Tris-HCl 50 mM pH 7.4). Filter-bound radioactivity was determined by scintillation counting in a Topcount (Packard, Meriden, Conn.) and results were expressed as counts per minute (cpm). Non-specific binding was determined in the presence of 1 μM oxymetazoline for hα2A- and hα2B receptors and 1 μM spiroxatrine for hα2C receptors.
# Data from assays in the presence of compound were calculated as a percentage of total binding measured in the absence of test compound. Inhibition curves, plotting percent of total binding versus the log value of the concentration of the test compound, were automatically generated, and sigmoidal inhibition curves were fitted using non-linear regression. The pIC50 values of test compounds were derived from individual curves.
# hα2B receptor = target: T3, hα2B receptor (Homo sapiens, UniProt P18089); assay: Radioligand binding experiment for hα2B receptor ([3H]-raulwolscine); conditions: membranes of CHO cells expressing human α2B receptor, [3H]raulwolscine 1 nM; for IC50: read-out: hα2B pIC50 (converted)
# T3 construct: expressed in transfected cells
# T3 sequence (P18089 1-450): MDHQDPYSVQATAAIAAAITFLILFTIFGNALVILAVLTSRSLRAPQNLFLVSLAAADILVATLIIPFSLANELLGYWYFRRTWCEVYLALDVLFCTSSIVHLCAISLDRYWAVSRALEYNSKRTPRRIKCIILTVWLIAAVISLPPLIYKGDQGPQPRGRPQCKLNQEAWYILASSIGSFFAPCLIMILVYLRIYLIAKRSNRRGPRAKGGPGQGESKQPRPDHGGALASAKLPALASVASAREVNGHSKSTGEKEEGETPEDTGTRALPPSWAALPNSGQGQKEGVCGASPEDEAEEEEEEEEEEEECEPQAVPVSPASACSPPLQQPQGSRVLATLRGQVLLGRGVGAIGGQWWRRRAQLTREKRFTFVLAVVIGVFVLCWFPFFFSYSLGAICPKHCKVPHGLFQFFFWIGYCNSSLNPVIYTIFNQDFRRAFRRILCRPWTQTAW
# Summary of the method: as §1
# h5-HT transporter = target: T4, h5-HT transporter (Homo sapiens, UniProt P31645); assay: Radioligand binding experiment for 5-HT transporter ([3H]paroxetine, human platelet membranes); conditions: human platelet membranes, [3H]paroxetine 0.5 nM; for IC50: read-out: 5HTT pIC50 (converted)
# T4 construct: Human platelet membranes (Oceanix Biosciences Corporation, Hanover, Md., USA) were thawed; tissue Oceanix Biosciences Corporation, Hanover, Md., USA; host or cells: human platelet membranes
# Summary of the method: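 Competition binding of [^3H]paroxetine to human platelet membranes in Tris-HCl 50 mM, 120 mM NaCl, 5 mM KCl; filter-bound radioactivity counted.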
# T4 sequence (P31645 whole entry): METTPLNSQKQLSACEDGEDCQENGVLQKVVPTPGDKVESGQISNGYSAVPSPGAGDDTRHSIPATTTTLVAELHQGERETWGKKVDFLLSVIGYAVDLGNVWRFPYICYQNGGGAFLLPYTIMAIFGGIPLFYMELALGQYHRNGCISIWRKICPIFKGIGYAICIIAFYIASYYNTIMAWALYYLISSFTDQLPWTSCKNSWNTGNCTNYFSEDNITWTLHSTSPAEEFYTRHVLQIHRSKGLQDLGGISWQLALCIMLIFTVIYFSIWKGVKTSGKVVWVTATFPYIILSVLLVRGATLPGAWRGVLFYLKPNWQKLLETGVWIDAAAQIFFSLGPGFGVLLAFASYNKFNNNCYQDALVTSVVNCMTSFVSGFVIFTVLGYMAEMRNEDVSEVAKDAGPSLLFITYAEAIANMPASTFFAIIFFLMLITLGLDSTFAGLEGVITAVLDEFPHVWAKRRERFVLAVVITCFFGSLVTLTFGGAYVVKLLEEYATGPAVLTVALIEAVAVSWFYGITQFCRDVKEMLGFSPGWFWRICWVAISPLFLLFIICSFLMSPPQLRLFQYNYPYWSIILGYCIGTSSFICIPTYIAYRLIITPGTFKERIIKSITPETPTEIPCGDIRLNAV
Structure (SMILES),IC50 (hα2C receptor) [nM],IC50 (hα2A receptor) [nM],IC50 (hα2B receptor) [nM],IC50 (h5-HT transporter) [nM],hα2C pIC50 (hα2C receptor),hα2A pIC50 (hα2A receptor),hα2B pIC50 (hα2B receptor),5HTT pIC50 (h5-HT transporter)
c1ccc2cc(CN3CCN(CC4ON=C5c6cc7c(cc6OCC54)OCO7)CC3)ccc2c1 (stereo not drawn) [Compound 277],17,2.45,7.94,107,,,,
COc1cc2c(cc1OC)C1=NOC(CN3CCN(CC=Cc4ccc(F)cc4)CC3)C1CO2 (stereo not drawn) [Compound 43],138,102,64.6,15.8,,,,
COc1cc2c(cc1O)OCC1C2=NOC1CN1CCN(C/C(C)=C/c2ccccc2)CC1 (stereo not drawn) [Compound 3],1.86,2.34,2.57,16.2,,,,
COc1cc2c(cc1OC)C1=NOC(CN3CCN(Cc4ccc5ccccc5n4)CC3)C1CO2 (stereo not drawn) [Compound 45],43.7,57.5,70.8,69.2,,,,
COc1cc2c(cc1OC)C1=NOC(CN3CCN(CCOc4ccc(F)cc4)CC3)C1CO2 (stereo not drawn) [Compound 48],4.37,13.2,5.75,126,,,,
COc1cc2c(cc1OC)C1=NOC(CN3CCN(CC4=Cc5ccccc5CC4)CC3)C1CO2 (stereo not drawn) [Compound 21],1.05,1.62,18.6,1.2,,,,
COCCOCOc1ccc2c(c1)OCC1C2=NOC1CN1CCN(Cc2ccc3ccccc3c2)CC1 (stereo not drawn) [Compound 267],2.82,3.24,12.6,5.01,,,,
COc1cc2c(cc1OC)C1=NOC(CN3CCN(CC(Br)=Cc4ccccc4)CC3)C1CO2 (stereo not drawn) [Compound 143],23.4,77.6,25.1,24,,,,
CC(=O)Oc1ccc2c(c1)OCC1C2=NOC1CN1CCN(Cc2ccc3ccccc3c2)CC1 (stereo not drawn) [Compound 273],30.9,7.76,20.9,13.2,,,,
CSc1cc2c(cc1F)C1=NOC(CN3CCN(CC(C)=Cc4ccccc4)CC3)C1CO2 (stereo not drawn) [Compound 244],1.35,3.8,7.41,126,,,,
Oc1ccc2c(c1)OCC1C2=NOC1CN1CCN(Cc2ccc3ccccc3c2)CC1 (stereo not drawn) [Compound 268],8.91,1,5.5,5.75,,,,
COc1cc2c(cc1OC)C1=NOC(CN3CCN(CC4=Cc5ccccc5OC4)CC3)C1CO2 (stereo not drawn) [Compound 65],5.13,13.2,18.2,5.13,,,,
COc1cc2c(cc1OC)C1=NOC(CN3CCN(Cc4cccc(F)c4)CC3)C1CO2 (stereo not drawn) [Compound 285],363,603,575,257,,,,
CC(=O)Oc1ccc2c(c1)OCC1C2=NOC1CN1CCN(CC=Cc2ccccc2)CC1 (stereo not drawn) [Compound 233],,,,,7.94,8.33,8.20,7.36
COc1cc2c(cc1OC)C1=NOC(CN3CCN(CC(C)Oc4cccc(F)c4)CC3)C1CO2 (stereo not drawn) [Compound 27],1.55,4.07,6.03,18.2,,,,
COc1cc2c(cc1OC)C1=NOC(CN3CCN(Cc4cccc(Cl)c4)CC3)C1CO2 (stereo not drawn) [Compound 14],263,427,646,363,,,,
COc1ccc2c(c1)CCC1C2=NOC1CN1CCN(CC=Cc2ccccc2)CC1 (stereo not drawn) [Comp 220],43.7,7.59,14.1,66.1,,,,
C(=Cc1ccccc1)CN1CCN(CC2ON=C3c4ccccc4CCC32)CC1 (stereo not drawn) [Comp 218],1260,182,132,457,,,,
COc1cc2c(cc1OC)C1=NOC(CN3CCN(Cc4cc5ccccc5o4)CC3)C1CO2 (stereo not drawn) [Compound 54],36.3,19.1,38,41.7,,,,
COc1cc2c(cc1OC)C1=NOC(CN3CCN(CC=Cc4ccc5c(c4)CCO5)CC3)C1CO2 (stereo not drawn) [Compound 125],34.7,56.2,141,13.5,,,,
c1ccc2cc(CN3CCN(CC4ON=C5c6ccc(OC7CCOC7)cc6OCC54)CC3)ccc2c1 (stereo not drawn) [Compound 271],42.7,3.89,13.8,2.95,,,,
COc1cc2c(cc1OC(C)=O)C1=NOC(CN3CCN(CC(C)=Cc4ccccc4)CC3)C1CO2 (stereo not drawn) [Compound 257],,,,,8.65,7.52,8.37,7.46
COc1cc2c(cc1Cl)C1=NOC(CN3CCN(CC(C)=Cc4ccccc4)CC3)C1CO2 (stereo not drawn) [Compound 246],,,,,7.86,7.55,7.90,7.50
COc1cc2c(cc1OC)C1=NOC(CN3CCN(CCCc4ccccc4)CC3)C1CO2 (stereo not drawn) [Compound 32],11.5,12.6,14.5,17,,,,
